The subject of data set [1] is Radical scavenging activity. The data set is described as follows: Antioxidant activity assessed as DPPH radical scavenging activity. It is filed as functional. Background: Loss of DPPH colour is used to gauge radical scavenging.
The subject of data set [2] is Influenza A virus. The data set is described as follows: Antiviral activity against Influenza A/PR8/H1N1 virus infected in MDCK cells assessed as inhibition of virus yield after 48 hrs. The data set is classed as functional.
The subject of data set [3] is MDCK. Kind of data set: Cytotoxicity against MDCK cells assessed as effect on cell viability at 20 ug/ml. It is filed as cell-based, Canis lupus familiaris. As to conditions: dog.
Data set [4] deals with MDCK. The data set is described as follows: Cytotoxicity against MDCK cells assessed as effect on cell morphology at 20 ug/ml. The data set is classed as cell-based, Canis lupus familiaris. To be noted: dog.
Data set [5] concerns MDCK. The data set is described as follows: Cytotoxicity against MDCK cells assessed as effect on cell morphology at 50 to 100 ug/ml. The data set is classed as cell-based, Canis lupus familiaris. To be noted: dog.
In data set [6] the test system is Influenza A virus. Kind of data set: Antiviral activity against Influenza A/PR8/H1N1 virus infected in MDCK cells assessed as inhibition of virus yield after 24 hrs. The data set is classed as functional, organism-based.
In data set [7] the test system is MDCK. Kind of data set: Cytotoxicity against MDCK cells assessed as effect on cell viability at 50 to 100 ug/ml. It is filed as cell-based, Canis lupus familiaris. To be noted: dog.
For data set [8], the system named is Influenza A virus. Kind of data set: Antiviral activity against Influenza A/PR8/H1N1 virus infected in MDCK cells assessed as inhibition of virus yield at 10 to 20 ug/ml after 48 hrs. The data set is classed as functional, organism-based.

The structures appear in SMILES notation. In brackets after ≈: the same amount, converted by molar mass. Activity calls are given as the source filed them. No cut-off for these calls is given here.

The term EC50 denotes the concentration giving half of the maximal effect. For orientation: IC50 means the concentration needed to halve the response being measured.

Turning to `CCOC(=O)CCc1ccc(O)c(O)c1`, in data set [1], the EC50 is 136.7 µg/mL (≈ 650 µM). Also, the inhibition result in the data set with Influenza A virus [2] was “inactive”.

In the case of `CC(=O)OCCc1ccc(O)c(O)c1`, the EC50 in data set [1] came to 0.57 µg/mL (≈ 2.91 µM). Also, the inhibition result in the data set on Influenza A virus [2] was “inactive”.

On to `COC(=O)CCc1ccc(O)cc1`, for which, in data set [1], the result was inactive.

Consider `CCCCC(=O)OCCc1ccc(O)c(O)c1`, for which the Activity result is recorded as “Non-toxic” in the data set on MDCK [3], “Non-toxic” in the data set on MDCK [4], “Toxic” in the data set with MDCK [5] and “Toxic” in the data set on MDCK [7]. Further, in data set [1], the concentration giving a half-maximal response (EC50) worked out at 0.59 µg/mL (≈ 2.48 µM). Moreover, the IC50 in the data set on Influenza A virus [6] came to 34 µM. Moreover, in the data set on Influenza A virus [6], the inhibition entry was “Dose-dependent effect”.

Regarding `CCCC(=O)OCCc1ccc(O)cc1`, in the data set with Influenza A virus [8], the result was inactive.

With `CCC(=O)OCCc1ccc(O)c(O)c1`, in data set [1], the EC50 was found to be 0.56 µg/mL (≈ 2.66 µM). The “inhibition (INH)” value with Influenza A virus [2] is 75%.

As to `CCCOC(=O)CCc1ccc(O)c(O)c1`, the EC50 in data set [1] amounted to 89.65 µg/mL (≈ 400 µM). Also, the inhibition entry in the data set on Influenza A virus [2] was “inactive”.

As for `O=C(O)CCc1ccc(O)c(O)c1` [DIHYDROCAFFEIC ACID], the EC50 in data set [1] was 61.29 µg/mL (≈ 336 µM). The inhibition result with Influenza A virus [2] was “inactive”.

With `O=C(O)CCc1ccc(O)cc1`, in data set [1], the result was inactive.

On to `CCCCOC(=O)CCc1ccc(O)c(O)c1`, for which, in data set [1], the EC50 is 58.9 µg/mL (≈ 247 µM). For the same molecule, in the data set with Influenza A virus [2], the inhibition result was “inactive”.

Turning to `COC(=O)CCc1ccc(O)c(O)c1`, the half-maximal effective concentration (EC50) in data set [1] came out at 161.9 µg/mL (≈ 825 µM). The inhibition entry in the data set on Influenza A virus [2] was “inactive”.

Consider `CCCCC(=O)OCCc1ccc(O)cc1`, for which the result with Influenza A virus [8] was inactive.

For the molecule `CCCC(=O)OCCc1ccc(O)c(O)c1` [HYDROXYTYROSOL BUTANOATE], the Activity result with MDCK [3] was “Non-toxic”; with MDCK [4] it was “Non-toxic”; in the data set on MDCK [5] it was “Toxic”; in the data set with MDCK [7] it was “Toxic”. In data set [1], the EC50 amounted to 0.58 µg/mL (≈ 2.59 µM). For the same molecule, the IC50 in the data set with Influenza A virus [6] amounted to 29.8 µM. Moreover, the inhibition result in the data set with Influenza A virus [6] was “Dose-dependent effect”.

`NC(=O)c1ncn([C@@H]2O[C@H](CO)[C@@H](O)[C@H]2O)n1` [RIBAVIRIN]: the IC50 with Influenza A virus [6] was found to be 14 µM.

These data come from ChEMBL document CHEMBL3091354, “Tyrosinase and Layer-by-Layer supported tyrosinases in the synthesis of lipophilic catechols with antiinfluenza activity” (Bioorg Med Chem, 2013).
